Results taken from patent publication US10449223B2, “Use of dehydroeburicoic acid from Antrodia camphorata in the treatment or prevention of diabetes and hyperlipidemia” (priority 2016, dated 2019).

Legend:
CPT1a = assay: Semiquantitative RT-PCR, liver tissue: CPT1a mRNA; format: in vivo, C57BL/6J mice; conditions: STZ-induced diabetic mice; TT oral (10, 20, 40 mg/kg/day groups, dose not given)
Method: (§1) Total RNA from liver tissue was isolated with a Trizol Reagent (Molecular Research Center, Inc., Cincinnati, Ohio) according to the manufacturer's directions. The integrity of the extracted total RNA was examined by 2% agarose gel electrophoresis, and the RNA concentration was determined by the ultraviolet (UV) light absorbency at 260 nm and 280 nm (Spectrophotometer U-2800A, Hitachi). Total RNA (1 μg) was reverse transcribed to cDNA in a reaction mixture containing buffer, and 5 μL Moloney murine leukemia virus reverse transcriptase (Epicentre, Madison, Wis., USA). The polymerase chain reaction (PCR) was performed in a final 25 μL containing 1 U Blend Taq-Plus (TOYOBO, Japan), 1 μL of the RT first-strand cDNA product, 10 μM of each forward (F) and reverse (R) primer, 75 mM Tris-HCl (pH 8.3) containing 1 mg/L Tween 20, 2.5 mM dNTP, and 2 mM MgCl2. The products were run on 2% agarose gels and stained with ethidium bromide.

SREBP1c = assay: Semiquantitative RT-PCR, liver tissue: SREBP1c mRNA; format: in vivo, C57BL/6J mice; conditions: STZ-induced diabetic mice, 28 days, relative to CON group (so in the source)
Method: as §1

[1] = tested on: STZ-induced diabetic mice; assay: Tissue weight, body weight and food intake in STZ-induced diabetic mice; format: in vivo, C57BL/6J mice; conditions: 28 days
G6 Pase = assay: Semiquantitative RT-PCR, liver tissue: G6 Pase mRNA; format: in vivo, C57BL/6J mice; conditions: STZ-induced diabetic mice, 28 days, relative to CON group (so in the source)
Method: as §1

PEPCK = assay: Semiquantitative RT-PCR, liver tissue: PEPCK mRNA; format: in vivo, C57BL/6J mice; conditions: STZ-induced diabetic mice, 28 days, relative to CON group (so in the source)
Method: as §1

GLUT4 [2] = assay: GLUT4 protein expression in C2C12 myotube cells (Western blot); format: cell-based
Method: (§2) C2C12 skeletal myoblasts (ATCC, CRL-1772) were maintained in growth media consisting of Dulbecco's modified Eagle's medium (DMEM) (Gibco BRL) supplemented with 10% fetal bovine serum (FBS) (Hyclone) and 100 U/mL penicillin/100 μg/mL streptomycin (Gibco BRL) and split 1:4 using 0.05% trypsin when 80% confluent. Myoblasts were diluted and placed in a 9 cm dish. Cells were cultured to achieve 80-90% confluency, and growth medium was changed as 2% FBS/DMEM every 24 h for 5-7 days.
(§3) Determination of GLUT4 and phospho-Akt (Ser^473)/Total Akt Proteins in Vitro: Differentiated C2C12 cells were serum starved in DMEM/BSA (2 h at 37° C.) prior to incubation either with test compounds (TT at 1, 5, 10, and 25 μg/mL) or with vehicle (DMSO containing saline, final concentration of DMSO=0.2%) for 30 min or with 100 nM insulin for 25 min.
(§4) Following treatment, cells were washed three times with ice-cold PBS and separated into two portions. A portion of the cells was subsequently lysed in RIPA buffer (50 mM Tris-HCl, pH 8, 150 mM NaCl, 1% NP-40, 0.5% sodium deoxycholate, 0.1% SDS) supplemented with complete protease inhibitor cocktail (Roche) and phosphatase inhibitors and then centrifuged at 20000 g for […].
(§5) Supernatant protein was collected and stored at −20° C. Another portion of cells was homogenized with buffer (250 mmol/L sucrose, 50 mmol/L Tris, and 0.2 mmol/L edetic acid, pH 7.4) at 4° C., as previously described. The homogenates were centrifuged at 9000 g for 10 min (4° C.). The pellet was suspended with 0.5 mL of homogenization buffer and then centrifuged, repeated three times. The three supernatants were collected, mixed, and centrifuged at 190000 g for 60 min (4° C.). The pellet was resuspended with 0.2 mL of homogenization buffer, stored at −20° C., and performed within membrane.
(§6) Protein concentration was determined via BCA assay (Pierce). Equal amounts of protein were then diluted four times in SDS sample buffer and subjected to SDS-PAGE and were detected by Western blotting with antibodies specific for Akt, phosph-Akt Ser^473, and GLUT4. The density blotting was analyzed using Alpha Easy FCsoftware (Alpha Innotech Corp., Randburg, South Africa).

Akt = assay: phospho-Akt (Ser473)/total Akt in C2C12 myotube cells (Western blot); format: cell-based
Method: as §2, §3, §4
as §5, with “The pellet was resuspended with 0.2 mL of homogenization buffer, stored at −20° C., and performed within membrane.” left out
as §6

PPARγ = assay: Western blotting: PPARγ in liver and adipose tissue of mice; conditions: STZ-induced diabetic mice, 28 days
Method: (§7) The study protocol was performed as previously described.^28 Diabetes was induced by intraperitoneal injection of streptozotocin (Sigma Chemical, St. Louis, Mo., USA) for 5 consecutive days. The dosage of STZ was 55 mg/kg (dissolved in 0.05 M cold sodium citrate buffer, pH 4.5). The normal control mice received only citrate buffer of the same volume.
(§8) During the experiment, all mice were fasted overnight, and blood was collected from the retro-orbital sinus. After dosing for 4 weeks, food was removed from the mice at night, and on the next day, the mice after 12 h of fasting were sacrificed. All of the individual tissues were collected and weighed, and parts of tissues were instantly frozen at −80° C. for later target gene analysis.
(§9) PPARα, PPARγ, and FAS proteins were performed by the liver and white adipose tissue of mice. Skeletal muscle from mice was subjected to GLUT4 expression level analysis, and the total membrane fractions were collected with buffer and determined using a described procedure. The protein contents of GLUT4, phospho-AMPK, and total AMPK were detected by Western blotting and determined as described.

GLUT4 [3] = assay: Western blotting: membrane GLUT4 in skeletal muscle of mice; conditions: STZ-induced diabetic mice, 28 days
Method: as §7, §8, §9

FAS = assay: Western blotting: FAS in liver and adipose tissue of mice; conditions: STZ-induced diabetic mice, 28 days
Method: as §7, §8, §9

AMPK = assay: Western blotting: phospho-AMPK (Thr172)/total AMPK in skeletal muscle and liver of mice; conditions: STZ-induced diabetic mice, 28 days
Method: as §7, §8, §9

SREBP2 = assay: Semiquantitative RT-PCR, liver tissue: SREBP2 mRNA; format: in vivo, C57BL/6J mice; conditions: STZ-induced diabetic mice; TT oral (10, 20, 40 mg/kg/day groups, dose not given)
Method: as §1

DGAT2 = assay: Semiquantitative RT-PCR, liver tissue: DGAT2 mRNA; format: in vivo, C57BL/6J mice; conditions: STZ-induced diabetic mice, 28 days, relative to CON group (so in the source)
Method: as §1

PPARα [4] = assay: Semiquantitative RT-PCR, liver tissue: PPARα mRNA; format: in vivo, C57BL/6J mice; conditions: STZ-induced diabetic mice, 28 days
Method: as §1

PPARα [5] = assay: Western blotting: PPARα in liver of mice; conditions: STZ-induced diabetic mice, 28 days
Method: as §7, §8, §9

[6] = tested on: STZ-induced diabetic mice; assay: Histology of epididymal WAT and liver tissue in STZ-induced diabetic mice; format: in vivo, C57BL/6J mice; conditions: 28 days
Text: Parts of EWAT and liver tissue specimens were investigated as previously described.^31,32 Microscopic images were taken using a microscope (Olympus BX51, BX51, Olympus, Tokyo, Japan).

Compound: C=C(CC[C@@H](C(=O)O)[C@H]1CC[C@@]2(C)C3=CC[C@H]4C(C)(C)[C@@H](O)CC[C@]4(C)C3=CC[C@]12C)C(C)C [TT, dehydroeburicoic acid]
- CPT1a mRNA levels in liver (CPT1a): enhanced
- mRNA levels of SREBP1c in liver (SREBP1c; TT 10 mg/kg/day oral): decreased
- mRNA levels of SREBP1c in liver (SREBP1c; TT 20 mg/kg/day oral): decreased
- mRNA levels of SREBP1c in liver (SREBP1c; TT 40 mg/kg/day oral): decreased
- Tissue weight: BAT ([1]; TT 10 mg/kg/day oral): 0.296 ± 0.012 wt %
- Tissue weight: EWAT ([1]; TT 10 mg/kg/day oral): 0.778 ± 0.063 wt %
- Tissue weight: MWAT ([1]; TT 10 mg/kg/day oral): 0.562 ± 0.114 wt %
- Tissue weight: RWAT ([1]; TT 10 mg/kg/day oral): 0.122 ± 0.029 wt %
- Tissue weight: Visceral fat ([1]; TT 10 mg/kg/day oral): 0.900 ± 0.082 wt %
- Tissue weight: BAT ([1]; TT 20 mg/kg/day oral): 0.323 ± 0.026 wt %
- Tissue weight: EWAT ([1]; TT 20 mg/kg/day oral): 0.783 ± 0.087 wt %
- Tissue weight: MWAT ([1]; TT 20 mg/kg/day oral): 0.709 ± 0.111 wt %
- Tissue weight: RWAT ([1]; TT 20 mg/kg/day oral): 0.161 ± 0.031 wt %
- Tissue weight: Visceral fat ([1]; TT 20 mg/kg/day oral): 0.944 ± 0.115 wt %
- Tissue weight: EWAT ([1]; TT 40 mg/kg/day oral): 0.715 ± 0.068 wt %
- Tissue weight: MWAT ([1]; TT 40 mg/kg/day oral): 0.720 ± 0.114 wt %
- Tissue weight: RWAT ([1]; TT 40 mg/kg/day oral): 0.119 ± 0.014 wt %
- Tissue weight: Visceral fat ([1]; TT 40 mg/kg/day oral): 0.834 ± 0.082 wt %
- mRNA levels of G6 Pase in liver (G6 Pase; TT 10 mg/kg/day oral): decreased
- mRNA levels of G6 Pase in liver (G6 Pase; TT 20 mg/kg/day oral): decreased
- mRNA levels of G6 Pase in liver (G6 Pase; TT 40 mg/kg/day oral): decreased
- mRNA levels of PEPCK in liver (PEPCK; TT 10 mg/kg/day oral): decreased
- mRNA levels of PEPCK in liver (PEPCK; TT 20 mg/kg/day oral): decreased
- mRNA levels of PEPCK in liver (PEPCK; TT 40 mg/kg/day oral): decreased
- protein expressions of GLUT4 vs CON group (GLUT4 [2]; TT 1 μg/mL, 30 min): higher
- protein expressions of GLUT4 vs CON group (GLUT4 [2]; TT 5 μg/mL, 30 min): higher
- protein expressions of GLUT4 vs CON group (GLUT4 [2]; TT 10 μg/mL, 30 min): higher
- protein expressions of GLUT4 vs CON group (GLUT4 [2]; TT 25 μg/mL, 30 min): higher
- levels of phospho-Akt (Ser473)/total Akt proteins vs CON group (Akt; TT 10 μg/mL, 30 min): higher
- levels of phospho-Akt (Ser473)/total Akt proteins vs CON group (Akt; TT 25 μg/mL, 30 min): higher
- expression levels of PPARγ in adipose tissue (PPARγ; TT 10 mg/kg/day oral): decreased
- expression levels of PPARγ in the liver (PPARγ; TT 10 mg/kg/day oral): decreased
- expression levels of PPARγ in adipose tissue (PPARγ; TT 20 mg/kg/day oral): decreased
- expression levels of PPARγ in the liver (PPARγ; TT 20 mg/kg/day oral): decreased
- expression levels of PPARγ in adipose tissue (PPARγ; TT 40 mg/kg/day oral): decreased
- expression levels of PPARγ in the liver (PPARγ; TT 40 mg/kg/day oral): decreased
- membrane expression levels of GLUT4 in skeletal muscle vs STZ group (GLUT4 [3]; TT 10 mg/kg/day oral): greater
- membrane expression levels of GLUT4 in skeletal muscle vs STZ group (GLUT4 [3]; TT 20 mg/kg/day oral): greater
- membrane expression levels of GLUT4 in skeletal muscle vs STZ group (GLUT4 [3]; TT 40 mg/kg/day oral): greater
- expression levels of FAS in adipose tissue (FAS; TT 10 mg/kg/day oral): decreased
- expression levels of FAS in the liver (FAS; TT 10 mg/kg/day oral): decreased
- expression levels of FAS in adipose tissue (FAS; TT 20 mg/kg/day oral): decreased
- expression levels of FAS in the liver (FAS; TT 20 mg/kg/day oral): decreased
- expression levels of FAS in adipose tissue (FAS; TT 40 mg/kg/day oral): decreased
- expression levels of FAS in the liver (FAS; TT 40 mg/kg/day oral): decreased
- expression levels of phospho-AMPK/total AMPK in skeletal muscle (AMPK; TT 10 mg/kg/day oral): increased
- muscular expression levels of phospho-AMPK/total AMPK compared with the STZ group (second sentence) (AMPK; TT 10 mg/kg/day oral): increased
- expression levels of phospho-AMPK/total AMPK in skeletal muscle (AMPK; TT 20 mg/kg/day oral): increased
- muscular expression levels of phospho-AMPK/total AMPK compared with the STZ group (second sentence) (AMPK; TT 20 mg/kg/day oral): increased
- expression levels of phospho-AMPK/total AMPK in skeletal muscle (AMPK; TT 40 mg/kg/day oral): increased
- muscular expression levels of phospho-AMPK/total AMPK compared with the STZ group (second sentence) (AMPK; TT 40 mg/kg/day oral): increased
- SREBP2 mRNA levels in liver (SREBP2): decreased
- mRNA levels of DGAT2 in liver (DGAT2; TT 10 mg/kg/day oral): decreased
- mRNA levels of DGAT2 in liver (DGAT2; TT 20 mg/kg/day oral): decreased
- mRNA levels of DGAT2 in liver (DGAT2; TT 40 mg/kg/day oral): decreased
- mRNA level of PPARα in liver (PPARα [4]; TT 10 mg/kg/day oral): increased
- mRNA level of PPARα in liver (PPARα [4]; TT 20 mg/kg/day oral): increased
- mRNA level of PPARα in liver (PPARα [4]; TT 40 mg/kg/day oral): increased
- expression levels of PPARα in the liver (PPARα [5]; TT 10 mg/kg/day oral): increased
- expression levels of PPARα in the liver (PPARα [5]; TT 20 mg/kg/day oral): increased
- expression levels of PPARα in the liver (PPARα [5]; TT 40 mg/kg/day oral): increased
- ballooning of hepatocyte (liver histology) ([6]; TT 10 mg/kg/day oral): no ballooning phenomenon
- average area of adipocytes in epididymal WAT ([6]; TT 20 mg/kg/day oral): 5379.9±187.2 μm^2
- ballooning of hepatocyte (liver histology) ([6]; TT 20 mg/kg/day oral): no ballooning phenomenon
- average area of adipocytes in epididymal WAT ([6]; TT 40 mg/kg/day oral): 4910.5±104.9 μm^2
- ballooning of hepatocyte (liver histology) ([6]; TT 40 mg/kg/day oral): no ballooning phenomenon

Compound: insulin [reference compound]
- protein expressions of GLUT4 vs CON group (GLUT4 [2]; 100 nM insulin, 25 min): higher
- levels of phospho-Akt (Ser473)/total Akt proteins vs CON group (Akt; 100 nM insulin, 25 min): higher
